According to patent US20140235578A1, “METHODS FOR TREATING NEOPLASIA AND FOR IDENTIFYING COMPOSITIONS USEFUL IN SUCH THERAPY” (priority 2007, published 2014):
Where a SMILES comes first, the peptide text is derived from it. The star is where a group is joined. Cbz = O=C(OCc1ccccc1)*

What was measured:
[1] = tested on: SV40-transformed MEFs; test: Plasmid integration assay; format: cell-based, mouse; conditions: 2 μM, added 30 min prior to and during transfection
Method: Transformed top2β^+/Δ2 and top2β^Δ2/Δ2 MEFs were plated in six-well plates (4×10^5 cellsper well) one day prior to transfection. Transfection was performed with EcoRI-linearized pUCSV-BSD plasmid (containing the blasticidin resistance gene) using the Cellfectin (Invitrogen) transfection reagent (0.1 μg DNA+2 μl Cellfectin). VP-16 was added at the time of transfection. After 6 hr, cells were washed and trypsinized. A small aliquot was removed, reseeded into fresh medium and grown without the selection agent for survival determination. The rest of the cells were reseeded into fresh medium in a 10 cm plate. After 24 hr, the selection agent blasticidin (3 μg/ml) was added. Colonies were stained with methylene blue and counted after 10 days. Where indicated, the proteasome inhibitor MG132 (2 μM) was added 30 min prior to and during transfection. Integration frequency was determined as the ratio of the number of blasticidin-resistant colonies and the number of surviving cells.

[2] = tested on: H9C2 cardiomyocytes; format: cell-based
Method: Vitamin C and NAC were added 30 min prior to doxorubicin. Cell lysates were then analyzed by Western blotting using anti-γ-H2AX or anti-α-tubulin antibody. […] Cell lysates were then analyzed by Western blotting (upper panel) using anti-γ-H2AX or anti-α-tubulin antibody. Quantification of γ-H2AX signals is shown in the lower panel. C, H9C2 cells were treated with 0.1% DMSO (labeled DMSO), bortezomib (1 μM) or MG132 (4 μM) for 30 min, followed by co-treatment with either 0.1% DMSO (labeled control) or 0.5 μM doxorubicin (labeled Doxo) for 1.5 hrs. Neutral comet assay was then performed as described in Materials and Methods. The average comet tail moments were plotted as histograms (mean±SEM). *p-value<0.001, t-test.
The amount of Top2 cleavage complexes was measured by a band depletion assay as described in Materials and Methods. Cells were lysed either immediately or after reversal of the Top2 cleavage complexes (labeled R+250). Cell lysates were analyzed by Western blotting using anti-Top2α/Top2β or anti-α-tubulin antibody. […] Cells were then lysed and protein levels of Top2α, and Top2β isozymes were determined by Western blotting. […] Cell lysates were immunoblotted using anti-Top2β antibody. D, H9C2 cells were treated with ICRF187 (100 μM) for 4 hrs, followed by treatment with doxorubicin (Doxo, 0, 0.5 and 1 μM) for 1.5 hrs. […]

[3] = tested on: MEFs; test: Neutral comet assay of VP-16-induced DSBs; format: cell-based, mouse; conditions: co-treatment, data not shown
Method: Both wild type and Top2β knockout mouse embryonic fibroblasts (MEFs) were treated with either DMSO (solvent control) or VP-16 (250 μM) for 90 min, followed by incubated in drug-free media for 30 min. Neutral comet assay was then performed. Tail moment (average from 100 cells) was determined for each treatment.

[4] = target: T1, Top2α (Rattus norvegicus, UniProt P41516); test: Top2α protein level by Western blotting in H9C2 cells; format: cell-based; conditions: 100 μM, 0-6 hrs
T1 construct: endogenous in cells; host or cells: H9C2 cardiomyocytes
T1 sequence (P41516 whole entry): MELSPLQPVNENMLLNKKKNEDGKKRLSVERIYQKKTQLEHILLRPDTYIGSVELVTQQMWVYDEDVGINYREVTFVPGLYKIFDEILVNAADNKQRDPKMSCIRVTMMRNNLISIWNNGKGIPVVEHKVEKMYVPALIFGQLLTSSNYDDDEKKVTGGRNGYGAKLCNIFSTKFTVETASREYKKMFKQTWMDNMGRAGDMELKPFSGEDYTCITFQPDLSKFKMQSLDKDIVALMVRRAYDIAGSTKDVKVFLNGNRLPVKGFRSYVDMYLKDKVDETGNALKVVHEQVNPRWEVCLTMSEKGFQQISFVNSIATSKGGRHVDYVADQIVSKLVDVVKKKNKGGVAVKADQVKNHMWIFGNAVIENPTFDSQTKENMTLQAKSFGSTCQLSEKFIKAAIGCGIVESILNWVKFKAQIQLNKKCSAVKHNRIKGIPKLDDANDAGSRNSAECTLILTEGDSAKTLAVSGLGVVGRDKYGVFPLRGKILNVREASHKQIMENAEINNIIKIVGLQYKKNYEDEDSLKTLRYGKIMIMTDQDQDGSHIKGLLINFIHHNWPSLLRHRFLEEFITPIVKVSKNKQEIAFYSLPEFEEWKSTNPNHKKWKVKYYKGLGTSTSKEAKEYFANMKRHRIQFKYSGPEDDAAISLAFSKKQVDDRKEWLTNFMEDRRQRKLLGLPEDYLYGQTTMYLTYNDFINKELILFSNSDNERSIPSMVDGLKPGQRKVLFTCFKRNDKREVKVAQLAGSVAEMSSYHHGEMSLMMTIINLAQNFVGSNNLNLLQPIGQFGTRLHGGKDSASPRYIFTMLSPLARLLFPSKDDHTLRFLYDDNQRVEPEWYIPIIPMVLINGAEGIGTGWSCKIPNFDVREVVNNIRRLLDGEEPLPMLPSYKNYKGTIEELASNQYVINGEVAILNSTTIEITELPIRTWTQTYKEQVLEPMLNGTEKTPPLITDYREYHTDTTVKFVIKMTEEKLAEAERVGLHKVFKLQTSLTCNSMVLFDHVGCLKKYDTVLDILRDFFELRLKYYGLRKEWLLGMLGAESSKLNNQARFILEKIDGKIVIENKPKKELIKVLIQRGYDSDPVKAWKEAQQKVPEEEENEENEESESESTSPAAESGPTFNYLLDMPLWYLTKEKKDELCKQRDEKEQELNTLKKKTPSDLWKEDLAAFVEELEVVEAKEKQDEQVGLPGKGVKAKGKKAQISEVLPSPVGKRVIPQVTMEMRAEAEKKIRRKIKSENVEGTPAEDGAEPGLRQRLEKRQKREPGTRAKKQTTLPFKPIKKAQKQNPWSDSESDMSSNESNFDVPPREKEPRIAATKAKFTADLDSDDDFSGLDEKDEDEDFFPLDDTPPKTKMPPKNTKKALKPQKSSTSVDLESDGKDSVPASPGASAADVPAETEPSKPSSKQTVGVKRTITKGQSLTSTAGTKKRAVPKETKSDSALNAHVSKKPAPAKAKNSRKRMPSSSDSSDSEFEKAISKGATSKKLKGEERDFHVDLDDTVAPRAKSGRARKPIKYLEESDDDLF
Method: (§1) The amount of Top2 cleavage complexes was measured by a band depletion assay as described in Materials and Methods. Cells were lysed either immediately or after reversal of the Top2 cleavage complexes (labeled R+250). Cell lysates were analyzed by Western blotting using anti-Top2α/Top2β or anti-α-tubulin antibody. […] Cells were then lysed and protein levels of Top2α, and Top2β isozymes were determined by Western blotting. […] Cell lysates were immunoblotted using anti-Top2β antibody. D, H9C2 cells were treated with ICRF187 (100 μM) for 4 hrs, followed by treatment with doxorubicin (Doxo, 0, 0.5 and 1 μM) for 1.5 hrs. Neutral comet assay was then performed as described in Materials and Methods. The average comet tail moments were plotted as histograms (mean±SEM). * p-value<0.001, t-test.

[5] = tested on: Top2β; test: Top2β protein level by Western blotting in H9C2 cells; format: cell-based; conditions: 100 μM, 0-6 hrs
Method: as §1

level of the Top2α isozyme [4]	SMILES	effect on VP-16-stimulated plasmid integration [1]	effect on doxorubicin-induced comet tail moment [2]	effect on VP-16-induced DSBs [3]	protein level of Top2β [5]
–	CC(C)C[C@@H](C=O)NC(=O)[C@H](CC(C)C)NC(=O)[C@H](CC(C)C)NC(=O)OCc1ccccc1 [MG132, N-[(Phenylmethoxy)carbonyl]-L-leucyl-N-[(1S)-1-formyl-3-methylbutyl]-L-leucinamide] (Cbz-Leu-Leu-Leu-aldehyde)	blocks	significantly reduced	abolish	–
no significant effect	C[C@@H](CN1CC(=O)NC(=O)C1)N1CC(=O)NC(=O)C1 [dexrazoxane]	–	–	–	time-dependent disappearance
